Key:
[1] = Ionophoric activity across egg yolk L-alpha-phosphatidylcholine-based liposomal membrane vesicles (unknown origin) assessed as release of chloride ion at 5 mol% by electrode technique in presence of 500 mM NaCl; format: ADME; conditions: artificial membrane
[2] = Ionophoric activity across egg yolk L-alpha-phosphatidylcholine-based liposomal membrane vesicles (unknown origin) assessed as release of chloride ion after 300 seconds by electrode technique in presence of sodium sulfate in external solution; format: ADME; conditions: artificial membrane, 5 min
[3] = Ionophoric activity across egg yolk L-alpha-phosphatidylcholine-based liposomal membrane vesicles (unknown origin) assessed as induction of pH discharge at internal pH 7 and external aqueous phase pH 8 at 3 mol% by pyranine dye-based method in presence of NaNO3; conditions: artificial membrane
[4] = Ionophoric activity across egg yolk L-alpha-phosphatidylcholine-based liposomal membrane vesicles (unknown origin) assessed as induction of pH discharge at internal pH 7 and external aqueous phase pH 8 at 3 mol% by pyranine dye-based method in presence of NaI; conditions: artificial membrane
[5] = Ionophoric activity across egg yolk L-alpha-phosphatidylcholine-based liposomal membrane vesicles (unknown origin) assessed as release of chloride ion after 300 seconds by electrode technique in presence of sodium nitrate in external solution; format: ADME; conditions: artificial membrane, 5 min
[6] = Ionophoric activity across egg yolk L-alpha-phosphatidylcholine-based liposomal membrane vesicles (unknown origin) assessed as release of chloride ion at 5 mol% by electrode technique in presence of 500 mM KCl; format: ADME; conditions: artificial membrane
[7] = Ionophoric activity across egg yolk L-alpha-phosphatidylcholine-based liposomal membrane vesicles (unknown origin) assessed as release of chloride ion at 5 mol% by electrode technique in presence of 500 mM CsCl; format: ADME; conditions: artificial membrane
[8] = Ionophoric activity across egg yolk L-alpha-phosphatidylcholine-based liposomal membrane vesicles (unknown origin) assessed as release of chloride ion at 5 mol% by electrode technique in presence of 500 mM LiCl; format: ADME; conditions: artificial membrane
[9] = Ionophoric activity across egg yolk L-alpha-phosphatidylcholine-based liposomal membrane vesicles (unknown origin) assessed as induction of pH discharge at internal pH 7 and external aqueous phase pH 8 at 3 mol% by pyranine dye-based method in presence of NaBr; conditions: artificial membrane
[10] = Ionophoric activity across egg yolk L-alpha-phosphatidylcholine-based liposomal membrane vesicles (unknown origin) assessed as induction of pH discharge at internal pH 7 and external aqueous phase pH 8 at 3 mol% by pyranine dye-based method in presence of NaCl; conditions: artificial membrane
[11] = Ionophoric activity across egg yolk L-alpha-phosphatidylcholine-based liposomal membrane vesicles (unknown origin) assessed as release of chloride ion at 5 mol% by electrode technique in presence of 500 mM RbCl; format: ADME; conditions: artificial membrane

- Activity [1]: Active
- Activity [2]: Active
- Activity [3]: Active
- Activity [4]: Active
- Activity [5]: Dose-dependent effect
- Activity [6]: Active
- Activity [7]: Active
- Activity [8]: Active
- Activity [9]: Active
- Activity [10]: Active
- Activity [11]: Active
SMILES: C[C@H](CCC(=O)NC(CCCNC(=N)N)C(=O)NCc1ccc(CNC(=O)C(CCCNC(=N)N)NC(=O)CC[C@@H](C)[C@@H]2CC[C@@H]3[C@@H]4[C@@H](C[C@@H](O)[C@]32C)[C@]2(C)CC[C@H](O)C[C@@H]2C[C@@H]4O)cc1)[C@H]1CC[C@H]2[C@@H]3[C@H](O)C[C@@H]4C[C@H](O)CC[C@]4(C)[C@H]3C[C@H](O)[C@]12C (stereo partly specified)

— ChEMBL document CHEMBL3393057, “Synthesis and transmembrane anion/cation symport activity of a rigid bis(choloyl) conjugate functionalized with guanidino groups” (Bioorg Med Chem Lett, 2015)
